Experimental data reported in article PMC7463537, “Synthesis and Evaluation of Antimicrobial and Cytotoxic Activity of Oxathiine-Fused Quinone-Thioglucoside Conjugates of Substituted 1,4-Naphthoquinones” (Molecules, 2020).
Where two headings read alike, the source gives them in different places.

How the values were obtained:
E. coli K-12 = experiment: Agar diffusion method, E. coli; assay type: cell-based, Escherichia coli; settings: Escherichia coli, K12; 100 µg/well; read-out: Diameter of Zone Inhibition, E. coli
Procedure: (§1) Elyakov Pacific Institute of Bioorganic Chemistry, Far East Branch, Russian Academy of Sciences. Test substances were dissolved in DMSO at concentrations of 1.0, 0.1, and 0.01 mg/mL. All strains were grown on trypticase-soy agar TSA (BBL) at 37 °C. […] After incubation of the dishes at 37 °C for 24 h (for bacteria) and 48 h (for the fungus) at 28 °C, the diameters of the growth inhibition zones of pathogenic microorganisms (mm) were measured, including the diameter of the wells. Commercial antibacterial drugs (vancomicin and gentamicin) and antifungal (clotrimazol) drugs were used as positive controls.

B. cereus ATCC 10702 = experiment: Agar diffusion method, B. cereus; assay type: cell-based, Bacillus cereus; design: key to Diameter of Zone Inhibition, B. cereus: Zones within 20–40 mm mean strong antibiotic activity; zones up to 20 mm—moderate; ≤10 mm—weak; +—insignificant; settings: 100 µg/well, 24 h, incl. 7 mm well
Procedure: as §1

C. albicans KMM 453 = experiment: Agar diffusion method, C. albicans; assay type: cell-based; settings: Candida albicans, KMM453, 48 h, 100 µg/well, 48 h at 28 °C; read-out: Diameter of Zone Inhibition, C. albicans
Procedure: as §1

P. aeruginosa ATCC 27853 = experiment: Agar diffusion method, P. aeruginosa; assay type: cell-based, Pseudomonas aeruginosa; settings: for zone of inhibition at 100 µg/disc: Pseudomonas aeruginosa, ATCC27853, 100 µg/well, read-out: Diameter of Zone Inhibition, P. aeruginosa
Procedure: as §1

Solubility in DMSO = assay type: physicochemical; settings: did not allow measurement of cytotoxic activity
S. aureus ATCC 21027 [1] = experiment: Agar diffusion method, S. aureus; assay type: cell-based, Staphylococcus aureus; settings: Staphylococcus aureus, ATCC21027, 24 h, 100 µg/well, 24 h, incl. 7 mm well; read-out: Diameter of Zone Inhibition, S. aureus
Procedure: as §1

[2] = tested on: human cervical cancer (HeLa); experiment: Cytotoxicity, MTT assay, HeLa cells; settings: read-out: Cytotoxicity (EC50), HeLa, 24 h
[3] = tested on: mouse neuroblastoma (Neuro 2a); experiment: Cytotoxicity, MTT assay, Neuro 2a cells; settings: read-out: Cytotoxicity (EC50), Neuro 2a, 24 h
[4] = tested on: mouse ascites Ehrlich carcinoma; experiment: Cytotoxicity, nonspecific esterase (FDA) assay, ascites Ehrlich carcinoma cells; settings: read-out: Cytotoxicity (EC50), Ascites Ehrlich Carcinoma, 24 h
[5] = tested on: mouse normal epithelial cell line (JB6 Cl 41-5a); experiment: Cytotoxicity, MTT assay, Jb6 Cl 41-5a normal epithelial cells; settings: read-out: Cytotoxicity (EC50), Jb6 Cl 41-5a; MTT reagent, 24 h, non-cancer cells
[6] = Cytotoxicity, statements of the text over all tested cell lines; settings: human, mouse
in vitro = settings: mouse
S. aureus ATCC 21027 [7] = experiment: Minimum inhibitory concentration, broth microdilution; assay type: cell-based, Staphylococcus aureus; settings: Staphylococcus aureus, ATCC21027; broth microdilution, 24 h; read-out: Minimum inhibitory concentration (MIC) against S. aureus
Procedure: Stocks of substances were prepared in DMSO at a concentration of 10 mM. All studied compounds were tested in concentrations from 1.5 μM to 100 μM using twofold dilution. All tested compounds were add to the wells of the plates in a volume of 20 μL diluted in PBS (DMSO concentration < 1%). The bacterial culture of S. aureus ATCC 21027 (Collection of Marine Microorganisms PIBOC FEB RAS) was cultured in a Petri dish at 37 °C for 24 h on solid medium with the following composition; pepton—5.0 g/L, K2HPO4—0.2 g/L, glucose—1.0 g/L, MgSO4—0.05 g/L, yeast extract—1 g/L, agar—16.0 g/L, and distilled water—1.0 L. The pH of the medium was adjusted to 7.2–7.4 with NaOH solution.
The antimicrobial activity of the compounds was determined by the minimum inhibitory concentration (MIC) according to the method adopted by the Clinical and Laboratory Standards Institute (CLSI). Methods for dilution antimicrobial susceptibility tests for bacteria that grow aerobically followed the approved standard—tenth edition. CLSI document M07-A10, PA: Clinical and Laboratory Standards Institute; 2015, with a slight modification of the medium. The assays were performed in 96-well microplates in appropriate broth (pepton—5.0 g/L, K2HPO4—0.2 g/L, glucose—1.0 g/L, MgSO4—0.05 g/L, yeast extract—1 g/L, casein hydrolyzate—2.5 g/L, distilled water—1L). […] The MIC value is defined as the lowest concentration of compounds resulting in the complete inhibition of bacterial growth by measuring the absorbance at 600 nm with a microplate reader (BioTek, Winooski, Vt, USA). All experiments were performed twice in triplicate. Gentamicin was used as a positive control in concentration 1 mg/mL; 1% DMSO solution in PBS as a negative. The selectivity index for S. aureus has been defined as the ratio of EC50 for normal cells and the MIC value for the bacterial culture (SI = EC50/MIC).

| melting point [°C] | SMILES | zone of inhibition at 100 µg/disc (E. coli K-12) [mm] | Diameter of Zone Inhibition, B. cereus (B. cereus ATCC 10702) | zone of inhibition at 100 µg/disc (C. albicans KMM 453) [mm] | zone of inhibition at 100 µg/disc (P. aeruginosa ATCC 27853) [mm] | Solubility in DMSO (Solubility in DMSO) | zone of inhibition at 100 µg/disc (S. aureus ATCC 21027 [1]) [mm] | EC50 ([2]; MTT reagent) [µM] | EC50 ([3]; MTT reagent) [µM] | EC50 ([4]; FDA) [µM] | EC50 [5] [µM] | EC50 at 24 h [6] [µM] | zone of inhibition at 100 µg/disc (B. cereus ATCC 10702; Bacillus cereus, ATCC10702, 24 h, read-out: Diameter of Zone Inhibition, B. cereus) [mm] | EC50 (in vitro) [µM] | EC50 ([2]; Homo sapiens, HeLa) [µM] | Diameter of Zone Inhibition, P. aeruginosa (P. aeruginosa ATCC 27853; 100 µg/well) [mm] | EC50 ([3]; N2a) [µM] | EC50 ([4]; Mus musculus, Ehrlich) [µM] | MIC (S. aureus ATCC 21027 [7]) [µM] |
| --- | --- | --- | --- | --- | --- | --- | --- | --- | --- | --- | --- | --- | --- | --- | --- | --- | --- | --- | --- |
| > 350 | COc1ccc(OC)c2c1C(=O)C1=C(S[C@@H]3O[C@H](CO)[C@H](O)[C@H](O)[C@H]3O1)C2=O [Compound 17b, (2R,3R,4S,4aR,12aS)-3,4-Dihydroxy-2-hydroxymethyl-7,10-dimethoxy-3,4,4a,12a-tetrahydro-2H-naphtho[2,3-b]pyrano[2,3-e][2,5]oxathiine-6,11-dione] | 0 | + | 0 | 0 | poor solubility | 0 |  |  |  |  |  |  |  |  |  |  |  |  |
|  | C=C(C)CCCC1(C)OC(=O)C23CCC4C(=CCC5C(C)(C)C(OC6OCC(OS(=O)(=O)O)C(O)C6OC6OC(C)C(OC7OC(CO)C(O)C(OC8OC(CO)C(O)C(OC)C8O)C7O)C(O)C6OC6OCC(O)C(O)C6O)CCC45C)C2(C)CC(=O)C13 (stereo not shown) [Cucumarioside A2-2, reference compound] |  |  |  |  |  |  | 42.4 | 37.5 | 18.5 | 15.1 |  |  |  |  |  |  |  |  |
|  | O=C1C=CC(=O)c2c(O)cccc21 [Juglone, 5-hydroxy-1,4-naphthoquinone, reference compound] | 0 |  |  | < 20 |  | 0 |  |  |  |  | > 100 | 0 | > 100 | > 100 | 12 ± 2 | > 100 | > 100 | > 100 |
